In PubChem BioAssay (NCI):
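96-well plates; 48 h exposure; 5 concentrations. Endpoints by linear interpolation between flanking doses. Not reached: highest tested concentration assigned. GI50 is the concentration that inhibits growth by half. TGI: total growth inhibition.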 Where a SMILES comes first, the peptide text is derived from it. The star is where a group is joined. Boc = CC(C)(C)OC(=O)*; nBu = CCCC*

Assays:
Test in all cases: NCI tumour cell line growth inhibition, 48 h
T-47D breast = tested on: T-47D breast
786-0 renal = tested on: 786-0 renal
EKVX NSCLC = tested on: EKVX NSCLC
PC-3 prostate = tested on: PC-3 prostate
SNB-78 CNS = tested on: SNB-78 CNS
M19-MEL melanoma = tested on: M19-MEL melanoma
XF 498 CNS = tested on: XF 498 CNS
LXFL 529 NSCLC = tested on: LXFL 529 NSCLC
DMS 114 small cell lung = tested on: DMS 114 small cell lung
KM20L2 colon = tested on: KM20L2 colon
RXF-631 renal = tested on: RXF-631 renal
DLD-1 colon = tested on: DLD-1 colon
DMS 273 small cell lung = tested on: DMS 273 small cell lung
HOP-18 NSCLC = tested on: HOP-18 NSCLC
P388 leukemia = tested on: P388 leukemia
SN12K1 renal = tested on: SN12K1 renal
P388/ADR leukemia = tested on: P388/ADR leukemia

`Cc1ccc(-c2cn3c(nc4ccccc43)c(/C=C/c3ccco3)n2)cc1` showed a TGI (T-47D breast) greater than 100 µM and a TGI (786-0 renal) greater than 100 µM.
In the case of `CN(CCc1ccccn1)c1ccc2c(c1)C(=O)c1ccccc1-2`, the TGI (EKVX NSCLC) is reported as greater than 100 µM, the TGI (T-47D breast) is reported as greater than 100 µM and the TGI (786-0 renal) is reported as greater than 100 µM. It also gave a TGI (PC-3 prostate) greater than 100 µM.
Compound `O=C1c2c(Br)sc(Br)c2[C@@H](O)[C@H]1O` has a TGI (EKVX NSCLC) of 34 µM, a TGI (T-47D breast) of 43.7 µM and a TGI (786-0 renal) of 28.5 µM. It also gave a TGI (PC-3 prostate) of 33.1 µM.
Work on `COc1ccc(N2C(=O)C(=O)C3(CCCCC3)C2=O)c2ccccc12` yielded a TGI (EKVX NSCLC) greater than 10 µM, a TGI (T-47D breast) greater than 10 µM and a TGI (PC-3 prostate) greater than 10 µM.
`CCCCCCCCCCCCCCCc1nc(=S)[nH][nH]1` gave a TGI (SNB-78 CNS) greater than 100 µM, a TGI (EKVX NSCLC) greater than 100 µM and a TGI (M19-MEL melanoma) greater than 100 µM. For the same compound, the TGI (XF 498 CNS) was greater than 100 µM, the TGI (LXFL 529 NSCLC) was greater than 100 µM and the TGI (DMS 114 small cell lung) was greater than 100 µM.
`COc1ccc(CCn2cncn2)cc1` was tested, and the TGI (SNB-78 CNS) was greater than 100 µM, the TGI (EKVX NSCLC) was greater than 100 µM and the TGI (KM20L2 colon) was greater than 100 µM. For the same compound, the TGI (RXF-631 renal) was greater than 100 µM, the TGI (DLD-1 colon) was greater than 100 µM and the TGI (DMS 273 small cell lung) was greater than 100 µM. For the same compound, the TGI (M19-MEL melanoma) was greater than 100 µM, the TGI (LXFL 529 NSCLC) was greater than 100 µM and the TGI (DMS 114 small cell lung) was greater than 100 µM.
Compound `COc1ccc(C2C3CCc4ccccc4C3=NN2S(=O)(=O)c2cccc(C(=O)O)c2OC)cc1` (stereo not drawn) has a TGI (EKVX NSCLC) greater than 100 µM, a TGI (T-47D breast) greater than 100 µM and a TGI (786-0 renal) greater than 100 µM. The TGI (PC-3 prostate) was greater than 100 µM.
In the case of `CN1CCC(C(O)(c2ccccc2)c2ccc(Br)cc2)CC1` (stereo not drawn), the TGI (EKVX NSCLC) is reported as greater than 100 µM, the TGI (T-47D breast) is reported as 78.3 µM and the TGI (786-0 renal) is reported as 27.5 µM. It also gave a TGI (PC-3 prostate) greater than 100 µM.
With `N#C/C(=C(/O)CCl)c1nc2ccccc2o1` the TGI (T-47D breast) was 44.6 µM, the TGI (786-0 renal) was 41.3 µM and the TGI (PC-3 prostate) was 22.8 µM.
`COC(=O)c1c(O)ccc2c1c1cc3ccccc3c(O)c1n2CCc1ccc(OC)c(OC)c1` showed a TGI (EKVX NSCLC) greater than 100 µM, a TGI (T-47D breast) greater than 100 µM and a TGI (786-0 renal) greater than 100 µM. For the same compound, the TGI (PC-3 prostate) was greater than 100 µM.
Compound `O=P(NCCCO)(OCc1ccccc1)N(CCCl)CCCl` (stereo not drawn) has a TGI (SNB-78 CNS) greater than 100 µM, a TGI (KM20L2 colon) greater than 100 µM and a TGI (DLD-1 colon) greater than 31.6 µM. For the same compound, the TGI (DMS 273 small cell lung) was greater than 100 µM, the TGI (HOP-18 NSCLC) was greater than 100 µM and the TGI (M19-MEL melanoma) was greater than 100 µM. For the same compound, the TGI (XF 498 CNS) was greater than 100 µM, the TGI (P388 leukemia) was greater than 100 µM and the TGI (SN12K1 renal) was greater than 100 µM. For the same compound, the TGI (P388/ADR leukemia) was greater than 100 µM.
In the case of `C/C(C=O)=C/[C@@]1(C)O[C@@H](C)[C@@](C)(O)[C@@H]1O`, the TGI (EKVX NSCLC) is reported as greater than 100 µM, the TGI (T-47D breast) is reported as greater than 100 µM and the TGI (786-0 renal) is reported as 34.6 µM. For the same compound, the TGI (PC-3 prostate) was greater than 100 µM.
`CC(C)CC(N)C(=O)NC(C(=O)NC(CCCNC(=N)N)C(=O)NC(CS)C(=O)NC1CSCC(C(=O)NC(Cc2ccccc2)C(=O)NC(C(=O)NC(CCCNC(=N)N)C(=O)O)C(C)C)NC(=O)C2CCCN2C(=O)C(CCCCN)NC(=O)C2CCCN2C(=O)C2CCCN2C(=O)C(Cc2ccc(O)cc2)NC(=O)C(CO)NC(=O)C(CCCCN)NC(=O)C(C(C)O)NC(=O)C(Cc2c[nH]c3ccccc23)NC1=O)C(C)C` (stereo not drawn) showed a TGI (EKVX NSCLC) greater than 25 µM, a TGI (T-47D breast) greater than 25 µM and a TGI (786-0 renal) greater than 25 µM. The TGI (PC-3 prostate) was greater than 25 µM.
`CCOc1nc2c(N3CCCC3)nc(N3CCNCC3)nc2nc1NCc1ccccc1` gave a TGI (EKVX NSCLC) of 4.33 µM, a TGI (T-47D breast) of 3.13 µM and a TGI (786-0 renal) of 2.68 µM. For the same compound, the TGI (PC-3 prostate) was 3.63 µM.
For `CCCCOc1ccc(CC(NC(=O)OC(C)(C)C)C(=O)NC(C)C(=O)NC(Cc2ccccc2)C(=O)NCC(N)=O)cc1` (stereo not drawn) (Boc-Y(nBu)AFG-NH2; configuration not given here), the TGI (T-47D breast) was greater than 100 µM, the TGI (786-0 renal) was greater than 100 µM and the TGI (PC-3 prostate) was greater than 100 µM.
`O=C(Cc1nc2ccccc2[nH]c1=O)c1c[nH]c2ccccc12` showed a TGI (EKVX NSCLC) greater than 100 µM, a TGI (T-47D breast) of 47.6 µM and a TGI (786-0 renal) of 29.3 µM. For the same compound, the TGI (PC-3 prostate) was 31.3 µM.
Compound `COc1ccc2nc3cc(Cl)ccc3c(NCCCN3CCN(CCCNc4ccc5nnn6c7ccccc7c(=O)c4c56)CC3)c2c1` has a TGI (EKVX NSCLC) greater than 25 µM, a TGI (T-47D breast) greater than 25 µM and a TGI (786-0 renal) greater than 25 µM. The TGI (PC-3 prostate) was greater than 25 µM.
Work on `O=C(Nc1ccccc1)Oc1ccc(C(=S)Nc2ccc(Br)cc2)cc1` yielded a TGI (EKVX NSCLC) of 31.1 µM, a TGI (T-47D breast) of 75.1 µM and a TGI (786-0 renal) of 52.2 µM. It also gave a TGI (PC-3 prostate) of 89.8 µM.
Work on `COc1ccccc1-c1c(C#N)c(N)[nH]c(=S)c1C#N` yielded a TGI (EKVX NSCLC) greater than 100 µM, a TGI (786-0 renal) greater than 100 µM and a TGI (PC-3 prostate) greater than 100 µM.
`Cc1c(-c2ccccc2)[nH]c2cn[nH]c(=O)c12` gave a TGI (EKVX NSCLC) greater than 100 µM, a TGI (786-0 renal) greater than 100 µM and a TGI (PC-3 prostate) greater than 100 µM.
For `CC1(C)OC[C@@H]([C@@]2(COC(c3ccccc3)(c3ccccc3)c3ccccc3)CC=CC(=O)O2)O1`, the TGI (EKVX NSCLC) was 83.8 µM, the TGI (T-47D breast) was greater than 100 µM and the TGI (786-0 renal) was greater than 100 µM. The TGI (PC-3 prostate) was greater than 100 µM.
`O=C(O)c1cc2ccccc2c(N=Nc2ccc(S(=O)(=O)Nc3ncccn3)cc2)c1O` was tested, and the TGI (EKVX NSCLC) was greater than 100 µM, the TGI (786-0 renal) was greater than 100 µM and the TGI (PC-3 prostate) was greater than 100 µM.
For `COc1cc(C2S/C(=C/c3ccccc3)C(=O)N2c2cccc(NC(C)=O)c2)cc(OC)c1OC` (stereo not drawn), the TGI (EKVX NSCLC) was 53.2 µM, the TGI (T-47D breast) was 68.6 µM and the TGI (PC-3 prostate) was 48.9 µM.
For `Cc1cc(-c2nc3c(F)cccc3s2)ccc1N`, the TGI (EKVX NSCLC) was 31.5 µM, the TGI (786-0 renal) was greater than 100 µM and the TGI (PC-3 prostate) was greater than 100 µM.
For `C=C1C(O)C2(O)OCC34C(CC5C(C)=CC(=O)C(O)C5(C)C23)OC(=O)C(OC(=O)C/C=C/CCCCCCCC)C14` (stereo not drawn), the TGI (SNB-78 CNS) was 0.057 µM, the TGI (EKVX NSCLC) was 0.027 µM and the TGI (KM20L2 colon) was 0.31 µM. For the same compound, the TGI (DLD-1 colon) was 0.0287 µM, the TGI (DMS 273 small cell lung) was 0.0964 µM and the TGI (HOP-18 NSCLC) was 1.1 µM. It also gave a TGI (M19-MEL melanoma) of 0.0244 µM, a TGI (XF 498 CNS) of 0.0351 µM and a TGI (SN12K1 renal) of 0.022 µM. For the same compound, the TGI (DMS 114 small cell lung) was 0.0205 µM and the TGI (P388/ADR leukemia) was 0.278 µM.
In the case of `CN(C)c1ccc(-c2ccc(-c3ccc(C(=N)N)cn3)o2)cc1`, the GI50 (T-47D breast) is reported as 1.73 µM, the TGI (T-47D breast) is reported as 3.67 µM and the GI50 (PC-3 prostate) is reported as 1.5 µM. For the same compound, the TGI (PC-3 prostate) was 2.93 µM.
Compound `O=[N+]([O-])c1ccc(N=Nc2c(O)[nH]c3ccccc23)c([N+](=O)[O-])c1` has a TGI (EKVX NSCLC) of 20.7 µM, a TGI (T-47D breast) of 52.8 µM and a TGI (786-0 renal) of 28.8 µM. The TGI (PC-3 prostate) was greater than 100 µM.
